We go through three molecules from US20130136753A1, “PAXILLIN AS A THERAPEUTIC OR DIAGNOSTIC MARKER FOR CANCER” (UNIVERSITY OF ROCHESTER, priority 2010, published 2013).

The test system of one data set is PC3 cells. The data set can be described thus: MTT cell proliferation assay, PC3 cells. It is filed as cell-based, human. The conditions noted are these: 100 nM PMA 24 hours, 20 μM U0126. As for the experimental part: PC3 or LnCAP cells were treated with non-targeting siRNA pool (ThermoFisher Scientific) or paxillin-specific siRNA according to manufacturer's instructions. Two sets of human paxillin siRNAs were used: 1) human paxillin siRNA (Santa Cruz Biotechnology) containing three target-specific 20-25 nucleotide siRNAs or 2) human paxillin siRNA ON-TARGET plus SMARTpoo1 (ThemoFisher Scientific) containing four siRNAs targeting the paxillin mRNA. The latter was used for all experiments described in the accompanying Examples, although results were similar with both pools. For experiments involving constitutively active (“CA”) Raf (William Walker, University of Pittsburgh) or MEK (Melanie Cobb, University of Texas Southwestern Medical Center), cells were co-transfected with paxillin or nonspecific siRNAs and cDNAs encoding caRaf or caMEK. After 72 hours, cells were treated overnight with serum-free, phenol red-free RPMI 1640 media and stimulated with 0.1% ethanol/DMSO (vehicle), 25 nM DHT (Steraloids), 20 ng/ml EGF (BD Biosciences), or 100 nM PMA (Sigma) for the times indicated for Western blots or 24 hours for MTT assays.
MTT assays were performed using a colorimetric assay cell proliferation kit (Roche Applied Science) according to the manufacturer's instructions.
A general note: Tetrazolium dyes change colour on reduction, which living cells bring about.

The subject of data set [1] is paxillin. The data set can be described thus: Western blot of paxillin phosphorylation in LnCAP cells. The format is cell-based, human. The conditions noted are these: 20 μM U0126. As to the method: LnCAP and PC3 cell lines were obtained from ATCC and cultured in RPMI 1640 medium (Invitrogen) containing 10% FBS and 1% penicillin-streptomycin. For experiments involving pharmacological inhibitors, cells were treated overnight with serum-free, phenol red-free RPMI 1640 media. Thereafter, cells were treated with vehicle (0.1% DMSO) or inhibitors Galardin, PP2, AG1478 (Calbiochem), flutamide, or erlotinib (Sigma) for 30 minutes before stimulation with 0.1% ethanol (vehicle) or 25 nM DHT for 30 minutes.
Western blots were performed as described (Evaul and Hammes, “Cross-Talk Between G Protein-Coupled and Epidermal Growth Factor Receptors Regulates Gonadotropin-Mediated Steroidogenesis in Leydig Cells,” J. Biol. Chem. 283(41):27525-27533 (2008), which is hereby incorporated by reference in its entirety). Primary antibodies were: paxillin, paxillinphospho-Tyr118, paxillin-phospho-Tyr31, Akt1/2/3, Akt1/2/3 phospho-Ser473, EGFR at 1:1000 dilution, and EGFR phospho-Tyr845 (1:500) (Santa Cruz Biotechnology); paxillin phospho-Ser126 (Invitrogen); paxillin phospho-Ser83 (ECM Biosciences); p44/42-Erk1/2, phospho-p44/42-Erk1/2 (Thr202/[…]), phospho-Ser217/221-MEK1/2, src, src-phospho-Tyr416 (Cell Signaling Technology) at 1:1000 dilutions and f3-actin (1:5000, Millipore).
(A western blot detects proteins with antibodies after separation by electrophoresis.)

Data set [2] deals with paxillin. As to the kind of experiment: Western blot of paxillin phosphorylation in PC3 cells. The format is cell-based, human. The conditions noted are these: 20 μM U0126. As for the experimental part: FIGS. 8A-D illustrate that PMA-mediated Erk1/2 activation is paxillin-independent, but PMA-mediated proliferation still requires serine phosphorylation of paxillin. In FIG. 8A, paxillin (Pax) or non-targeting (Nsp) siRNA-treated LnCAP cells were serum-starved and treated with PMA (100 nM) or EGF (20 ng/ml) for 30 minutes. Western blots were performed for paxillin and total and phosphorylated Erk1/2. In FIG. 8B, serum-starved PC3 cells were pretreated with 0.1% DMSO or 20 μM U0126 ([…]) for 30 minutes before stimulation with PMA (100 nM) or EGF (20 ng/ml) for another 30 minutes. Thereafter, levels of paxillin and phosphorylated paxillin at tyrosine-118 (Pax p-Y118) and serine-126 (Pax p-S126) were detected by Western blot. In FIG. 8C, cell proliferation (MTT assay) of PC3 cells treated (24 hours) with 0.1% DMSO (M) or 100 nM PMA in the presence or absence of 20 μM U0126. In FIG. 8D, PC3 cells were initially transfected with Paxillin (Pax) or non-targeting (Nsp) siRNA. After 96 hours, media were removed, and cells were then either mock-transfected or transfected with wild-type paxillin (left panel) or paxillin mutated at tyrosines 31/118 (Y31A/Y118A, middle panel) or serines 83/126/130 (S83A/S126A/S130A, right panel). […] Cell proliferation was detected by MTT. […]

The next data set relates to PSA mRNA. As to the kind of experiment: PSA mRNA expression by real time PCR in LnCAP cells. The format is cell-based, human. The conditions noted are these: 20 μM U0126 or 20 μM AG1478 30 minutes before 25 nM DHT 24 hours. As to the method:
RNA was isolated with the RNeasy mini kit (Qiagen) according to manufacturer's instructions. Levels of Kallikrein-related peptidase-3 (KLK3, or prostate-specific antigen (“PSA”)), paxillin, cyclin D1, and GAPDH expression were analyzed by the A/A-Ct method using Taqman gene expression assay primers (assay ID# Hs99999905_ml-GAPDH, Hs02576345_ml-KLK3, Hs99999004_ml-CCND1, and Hs01104424-ml-PXN; Applied Biosystems) on an ABI StepOne plus real-time PCR machine.
A general note: Quantitative PCR measures a nucleic acid by following its amplification.

In data set [3] the test system is ovarian clear cell carcinoma cell line TOV-21G. The conditions noted are these: cited from earlier work.
Data set [4] deals with HER-2 overexpressing breast cancer cells. The conditions noted are these: cited from earlier work.

In the case of `N#CC(=C(/N)Sc1ccccc1N)/C(C#N)=C(\N)Sc1ccccc1N` [U0126], the “PMA-induced proliferation of PC3 cells” value in the data set on PC3 cells was “blocked”. Moreover, the “DHT-induced phosphorylation of paxillin at serines 83/126” value in the data set with paxillin [1] is on record as “blocked”. Further, the “PMA-induced serine phosphorylation of paxillin” value in the data set on paxillin [2] is recorded as “blocked”. In addition, in the data set on PSA mRNA, the “DHT-induced expression of PSA mRNA” value was “abrogated”.

B1: Aptamer aptTOV1: aptamer binding ovarian clear cell carcinoma cell line TOV-21G (nucleic acid)
chain: UCCAGAGUGACGCAGCAGAUCUGUGUAGGAUCGCAGUGUAGUGGACAUUUGAUACGACUGGCUCGACACGGUGGCUUA
modifications: listed as RNA, chemistry not given here
B1: the “binding to TOV-21G cells” value in data set [3] is listed as “high affinity”.

B2: Aptamer S6: RNA aptamer binding HER-2 overexpressing breast cancer cells (nucleic acid)
chain: GGGAGAUACCAGCUUAUUCAAUUUGGAUGGGGAGAUCCGUUGAGUAAGCGGGCGUGUCUCUCUGCCGCCUUGCUAUGGGGAGAUAGUAAGUGCAAUCU
modifications: listed as RNA, chemistry not given here
B2: in data set [4], the “binding to HER-2 overexpressing breast cancer cells” value is reported as “binds specifically”.
